In ChEMBL document CHEMBL2434952, “Morphological changes of some pathogenic microbial strains induced by novel thiadiazole derivatives” (2013) one finds zone of inhibition data, which are given here for one compound.

Structures are written as SMILES.

Holding throughout (format): functional
In assay [1] the test system is Bacillus cereus. The assay is described as follows: Antibacterial activity against Bacillus cereus assessed as growth inhibition at 30 ug/disk measured after 24 to 48 hrs by agar disk diffusion method in presence of 24.4 Gy gamma-irradiation. As to conditions: light or radiation study, read-out: IZ. Background: Agar diffusion results depend on both activity and mobility in agar.

In assay [2] the test system is Staphylococcus aureus. The assay is described as follows: Antibacterial activity against Staphylococcus aureus assessed as growth inhibition at 30 ug/disk measured after 24 to 48 hrs by agar disk diffusion method in presence of 24.4 Gy gamma-irradiation. The settings on record: light or radiation study, read-out: IZ.
Assay [3] concerns Staphylococcus epidermidis. Kind of assay: Antibacterial activity against Staphylococcus epidermidis assessed as growth inhibition at 30 ug/disk measured after 24 to 48 hrs by agar disk diffusion method in absence of 24.4 Gy gamma-irradiation. The settings on record: light or radiation study, read-out: IZ.
The test system of assay [4] is Bacillus cereus. Kind of assay: Antibacterial activity against Bacillus cereus assessed as growth inhibition at 30 ug/disk measured after 24 to 48 hrs by agar disk diffusion method in absence of 24.4 Gy gamma-irradiation. The settings on record: light or radiation study, read-out: IZ.
For assay [5], the system named is Klebsiella pneumoniae. Kind of assay: Antibacterial activity against Klebsiella pneumoniae assessed as growth inhibition at 30 ug/disk measured after 24 to 48 hrs by agar disk diffusion method. The settings on record: read-out: IZ.
Assay [6] concerns Staphylococcus epidermidis. Kind of assay: Antibacterial activity against Staphylococcus epidermidis assessed as growth inhibition at 30 ug/disk measured after 24 to 48 hrs by agar disk diffusion method in presence of 24.4 Gy gamma-irradiation. As to conditions: light or radiation study, read-out: IZ.
In assay [7] the test system is Staphylococcus epidermidis. The assay is described as follows: Antibacterial activity against Staphylococcus epidermidis assessed as growth inhibition at 30 ug/disk measured after 24 to 48 hrs by agar disk diffusion method. As to conditions: read-out: IZ.
Assay [8] has as its system Bacillus cereus. Kind of assay: Antibacterial activity against Bacillus cereus assessed as growth inhibition at 30 ug/disk measured after 24 to 48 hrs by agar disk diffusion method. As to conditions: read-out: IZ.
Assay [9] concerns Staphylococcus aureus. Kind of assay: Antibacterial activity against Staphylococcus aureus assessed as growth inhibition at 30 ug/disk measured after 24 to 48 hrs by agar disk diffusion method. The settings on record: read-out: IZ.
Assay [10] concerns Pseudomonas aeruginosa. Kind of assay: Antibacterial activity against Pseudomonas aeruginosa assessed as growth inhibition at 30 ug/disk measured after 24 to 48 hrs by agar disk diffusion method. As to conditions: read-out: IZ.
The subject of assay [11] is Staphylococcus aureus. Kind of assay: Antibacterial activity against Staphylococcus aureus assessed as growth inhibition at 30 ug/disk measured after 24 to 48 hrs by agar disk diffusion method in absence of 24.4 Gy gamma-irradiation. The settings on record: light or radiation study, read-out: IZ.

For the compound `NCC[C@H](O)C(=O)N[C@@H]1C[C@H](N)[C@@H](O[C@H]2O[C@H](CN)[C@@H](O)[C@H](O)[C@H]2O)[C@H](O)[C@H]1O[C@H]1O[C@H](CO)[C@@H](O)[C@H](N)[C@H]1O` [AMIKACIN], the zone of inhibition at 30 µg/disc in assay [1] came out at 20 mm; in assay [2] it was 17 mm; in assay [3], 24 mm; in [4], 20 mm; in assay [5], 11 mm; in [6] it was 25 mm. The zone of inhibition at 30 µg/disc in [7] was determined as 25 mm; in assay [8] it was 20 mm; in [9], 20 mm; in [10], 15 mm; in assay [11], 20 mm.
